Assay results published in US20120094995A1, “2-AZA-BICYCLO[2.2.1]HEPTANE COMPOUNDS AND USES THEREOF” (ASTRAZENECA AB, priority 2009, published 2012).

target: T1, human GlyT1b (Homo sapiens, UniProt P48067); assay: [3H] Glycine Uptake Assay (SPA) in recombinant hGlyT1b-CHO cells; type: cell-based; conditions: Table 1
T1 construct: expressed in transfected cells
T1 sequence (P48067 1-652 isoform P48067-3): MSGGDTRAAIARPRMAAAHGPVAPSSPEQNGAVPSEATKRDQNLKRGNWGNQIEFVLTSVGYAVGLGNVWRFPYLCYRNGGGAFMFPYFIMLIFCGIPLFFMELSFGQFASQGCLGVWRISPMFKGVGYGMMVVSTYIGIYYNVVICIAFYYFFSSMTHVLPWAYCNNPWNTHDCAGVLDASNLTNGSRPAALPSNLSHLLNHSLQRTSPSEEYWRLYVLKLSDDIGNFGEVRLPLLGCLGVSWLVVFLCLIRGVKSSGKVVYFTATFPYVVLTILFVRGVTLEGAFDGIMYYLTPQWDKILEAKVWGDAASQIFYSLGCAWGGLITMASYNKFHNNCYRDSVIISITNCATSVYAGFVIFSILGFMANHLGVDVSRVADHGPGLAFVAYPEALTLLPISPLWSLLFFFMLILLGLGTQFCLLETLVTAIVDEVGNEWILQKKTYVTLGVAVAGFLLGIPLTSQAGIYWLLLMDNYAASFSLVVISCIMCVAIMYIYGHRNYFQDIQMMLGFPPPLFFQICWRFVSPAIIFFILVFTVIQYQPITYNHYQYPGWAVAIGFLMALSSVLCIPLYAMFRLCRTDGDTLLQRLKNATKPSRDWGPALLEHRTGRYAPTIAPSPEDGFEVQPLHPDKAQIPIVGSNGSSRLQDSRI
Protocol: A. [3H] Glycine Uptake Assay
Preparation of recombinant human GlyT1b-CHO cells (hGlyT1b-CHO). The human GlyT1b CDS (GC002087, NM_006934) was cloned downstream of a CMV promoter in a bicistronic expression vector containing a hygromycin B resistance gene. CHO-K1 cells (ATCC) were transfected with the recombinant vector containing GlyT1b using Lipofectamine 2000 (Invitrogen) and cultured in Ham's/F12 media supplemented with 10% fetal bovine serum, 2 mM L-glutamine at 37° C., 5% CO2, 90% humidity. Twenty-four hours after transfection, cells were diluted and switched to media containing 0.5 mg/ml hygromycin B. Antibiotic resistant cells were obtained after 21 days of culture in the presence of hygromycin B. Clonal stable cell lines were isolated by FACS single cell deposition into 96-well plates.
Cells used were Recombinant hGlyT1b/CHO. These cells were cultured in cell culture medium (Ham's/F12 (Modified) (Mediatech, 10-080-CM), containing 10% FBS, 2 mM L-glutamine (Invitrogen 25030-149) and 0.5 mg/mL hygromycin B (Invitrogen, 10687-010)) in 175 cm^2 flasks until near confluence before use in the assay.
Cell medium in a cell culture flask containing near confluent cells was removed and 5 mL of cell stripper was added to submerge all cells on the surface of the culture flask. Cell stripper was removed immediately and the flask incubated in a 37° C. incubator for ˜5 min. Cells were shaken loose and suspended in 5 mL of PBS. After splitting cells to initiate a new flask(s), the cells remaining were collected by centrifugation, counted, and resuspended in assay buffer to a density of ˜2 million/mL. The cell suspension was kept at room temperature before use. The assays buffer was 10 mM HEPES, pH 7.4, containing 150 mM NaCl, 5 mM KCl, 1.5 mM CaCl2, 1.5 mM MgCl2, 0.45 mg/mL L-alanine (added fresh), and 1.8 mg/mL D-glucose (added fresh).
WGA PTV beads were suspended in assay buffer (2 mg/ml) containing 60 nM [^3H]Glycine (PerkinElmer (NET-004, [2-^3H]Glycine, 53.3 Ci/mmol, 1 mCi/mL)) and 20 μM unlabeled glycine and the suspension was kept at room temperature before assay.
To the wells of an OptiPlate, 2 μl DMSO containing a test compound was spotted. This was followed by addition of 98 μl of cell suspension (˜1 million/ml final). After incubating cells with compound for ˜15 min, 100 μl of the SPA (200 μg/well final) and isotope mixture (30 nM isotope with 10 μM cold glycine, final) was added to initiate the glycine uptake. At 2 h, the plate was read on a TopCount to quantify SPA counts.

First: Cc1cccc(F)c1C(=O)NC(c1ccccc1)C12CCC(CC1)N2C (single isomer, unassigned) [Example 7, 2-fluoro-6-methyl-N-((7-methyl-7-azabicyclo[2.2.1]heptan-1-yl)(phenyl)methyl)benzamide]
Second: Cc1c(C(=O)NC(c2ccccc2)C23CCC(CC2)N3C)cccc1C(F)(F)F (centres unmarked) [Example 16, 2-methyl-N-((7-methyl-7-azabicyclo[2.2.1]heptan-1-yl)(phenyl)methyl)-3-(trifluoromethyl)benzamide]
The IC50 of the first is 3.3-fold higher: 62 nM for the first, 18.6 nM for the second. The second is the more potent here.

Compared with CSc1ncccc1C(=O)NC(c1ccccc1)C12CCC(CC1)N2C (centres unmarked) [Example 10, N-((7-methyl-7-azabicyclo[2.2.1]heptan-1-yl)(phenyl)methyl)-2-(methylthio)nicotinamide], CN1C2CCC1(C(NC(=O)c1cccc(Cl)c1Cl)c1ccccc1)CC2 (centres unmarked) [Example 12, 2,3-dichloro-N-((7-methyl-7-azabicyclo[2.2.1]heptan-1-yl)(phenyl)methyl)benzamide] is 4.3-fold lower in IC50: 145 nM for the first, 33.6 nM for the second. The second is the more potent here.

In the case of Cc1cccc(C)c1C(=O)NC(c1cccc(Br)c1)C12CCC(CC1)N2C (centres unmarked) [Example 8, N-((3-bromophenyl)(7-methyl-7-azabicyclo[2.2.1]heptan-1-yl)methyl)-2,6-dimethylbenzamide], the IC50 is reported as 3 nM.

same assay, conditions: Table 2, unit from table title

Compared with Cc1cccc(C)c1C(=O)N[C@H](c1ccc(F)cc1)C12CCC(CC1)N2 [Example 30], Cc1cccc(C)c1C(=O)NC(c1cccc(F)c1)C12CCC(CC1)N2 (single isomer, unassigned) [Example 76] is 3.2-fold higher in IC50: 93 nM for the first, 297 nM for the second. The first is the more potent here.

Going from Cc1cccc(C)c1C(=O)N[C@H](c1ccccc1)C12CCC(CC1)N2CCN1CCOC1=O [Example 70] to Cc1cccc(C)c1C(=O)N[C@H](c1ccccc1)C12CCC(CC1)N2CCN1CCCC1 [Example 69], the IC50 rises from 3 nM to 51 nM (17-fold). The first is the more potent here.

Cc1cccc(C)c1C(=O)NC(c1cccc(F)c1)C12CCC(CC1)N2C (single isomer, unassigned) [Example 46] and Cc1cccc(C)c1C(=O)NC(c1ccc(F)cc1)C12CCC(CC1)N2C (single isomer, unassigned) [Example 47] are the same in IC50: 2 nM for the first, 2 nM for the second.

First: CC(=O)Nc1cccc(C(NC(=O)c2c(C)cccc2C)C23CCC(CC2)N3C)c1 (centres unmarked) [Example 102]
Second: Cc1cccc(C)c1C(=O)NC(c1ccncc1)C12CCC(CC1)N2C (centres unmarked) [Example 37]
The IC50 of the first is 21-fold higher: 127 nM for the first, 6 nM for the second. The second is the more potent here.

Going from Cc1cccc(C)c1C(=O)NC(c1ccc(Br)cc1)C12CCC(CC1)N2C (centres unmarked) [Example 90] to CCCOc1ccc(C(NC(=O)c2c(C)cccc2C)C23CCC(CC2)N3C)cc1 (centres unmarked) [Example 100], the IC50 rises from 4 nM to 223 nM (56-fold).

First: CCCOC(=O)c1ccc(C(NC(=O)c2c(C)cccc2C)C23CCC(CC2)N3C)cc1 (centres unmarked) [Example 98]
Second: Cc1cccc(C)c1C(=O)NC(c1ccc(N2CCOCC2)cc1)C12CCC(CC1)N2C (centres unmarked) [Example 97]
The IC50 of the first is 1.9-fold lower: 39 nM for the first, 73 nM for the second.

First: CCN1C2CCC1(C(NC(=O)c1c(Cl)cncc1Cl)c1ccccc1)CC2 (centres unmarked) [Example 50]
Second: CCN1C2CCC1(C(NC(=O)c1cccnc1SC)c1ccccc1)CC2 (single isomer, unassigned) [Example 73]
The IC50 of the first is 5.2-fold higher: 237 nM for the first, 46 nM for the second.

Compared with Cc1cccc(C)c1C(=O)N[C@H](c1ccccc1)C12CCC(CC1)N2CC(C)C [Example 26], Cc1cccc(C)c1C(=O)N[C@H](c1ccccc1)C12CCC(CC1)N2CCN [Example 40] is 1.6-fold lower in IC50: 21 nM for the first, 13 nM for the second. The second is the more potent here.

Going from Cc1c(F)cccc1C(=O)NC(c1ccccc1)C12CCC(CC1)N2C (single isomer, unassigned) [Example 63] to Cc1cc(F)ccc1C(=O)NC(c1ccccc1)C12CCC(CC1)N2C (single isomer, unassigned) [Example 62], the IC50 falls from 76 nM to 48 nM (1.6-fold). The second is the more potent here.

Compared with COCCN1C2CCC1([C@H](NC(=O)c1c(C)cccc1C)c1ccccc1)CC2 [Example 24], Cc1ccc(C(NC(=O)c2c(C)cccc2C)C23CCC(CC2)N3C)o1 (single isomer, unassigned) [Example 91] is 16-fold higher in IC50: 22 nM for the first, 344 nM for the second. The first is the more potent here.

Compound CSc1ncccc1C(=O)N[C@H](c1ccccc1)C12CCC(CC1)N2C1CC1 [Example 57] has an IC50 of 45 nM.
